# Test results from PMC9312958, “A Novel and Selective Dopamine Transporter Inhibitor, (S)-MK-26, Promotes Hippocampal Synaptic Plasticity and Restores Effort-Related Motivational Dysfunctions” (Biomolecules, 2022).
# Key:
# hNET = molecular target: T1, hNET (Homo sapiens, UniProt P23975); test: hNET radioligand binding assay (CHO cells, [3H]nisoxetine)
# T1 construct: expressed in transfected cells
# Protocol: Binding affinity to the hDAT, hNET and hSERT expressed in CHO cells was evaluated in in vitro radioligand binding assays. Binding assays were conducted according to the standard and validated protocols under conditions defined by the contractor (Eurofins Cerep SA, Celle-’Evescault, France; study number 100054410). Antagonist radioligand assays were conducted for the human norepinephrine, the human dopamine, and the serotonin transporters (using CHO cells), using [^3H]nisoxetine (1 nM), [^3H]BTCP (4 nM), and [^3H]imipramine (2 nM) as ligands and desipramine (1 µM), BTCP (10 µM), and imipramine (10 µM) as non-specific agents, respectively (with scintillation counting as detection method).
# hSERT = molecular target: T2, hSERT (Homo sapiens, UniProt P31645); test: Uptake inhibition assay in HEK293 cells expressing hSERT; format: cell-based
# T2 construct: expressed in transfected cells
# Protocol: Human embryonic kidney 293 cells (HEK293 cells) were cultivated in Dulbecco’s Modified Eagle Medium (DMEM), containing 10% heat-inactivated fetal calf serum (FCS; 100 mL/L), streptomycin (100 μg/100 mL) and penicillin ([…]). Geneticin (50 μg/mL) was added to select cells stably expressing the human isoforms of dopamine, norepinephrine and serotonin transporter (hDAT, hNET, and hSERT, respectively) as described earlier. Cell lines were maintained in culture in humidified atmosphere (37 °C, 5% CO2), and passaged when reached 80–90% confluency. Cells expressing the desired transporter were seeded the day before the experiment (40,000 cells per well) or two days before the experiments (20,000 cells per well) onto poly-D-lysine (PDL)-coated 96-well plates.
# Uptake inhibition experiments were carried out as reported previously. […] Thereafter, 200 μL of Ultima Gold^TM XR scintillation cocktail (PerkinElmer, MA, USA) was added, the plates were shaken and the radioactivity accumulated into the cells determined in a Wal-lac 1450 MicroBeta TriLux Liquid Scintillation Counter & Lumi (GMI, Ramsey, MN, USA). Non- specific tritiated substrate uptake was measured in the presence of 100 μM cocaine (for hDAT and hNET) or 10 μM paroxetine (for hSERT), and subtracted from the data. […]
# [1] = test system: adult male Sprague Dawley rats; test: PROG/chow feeding choice task; format: in vivo, rat
# Protocol: Pharmacological agents: (S)-MK-26 was obtained from the Lubec Laboratory (University of Vienna, Austria) and dissolved in dimethyl sulfoxide (DMSO) (10%), Tween 80 (15%), and 0.9% saline (75%). The DMSO/Tween 80/saline mixture was administered as the vehicle control. The dose range was selected as 3.75–45.0 mg/kg based on its DAT affinity and pilot studies. It was administered 30 min before testing. TBZ (9,10-dimethoxy3-(2-methylpropyl)-1,3,4,6,7, 11b hexahydrobenzo[a]quinolizin2-one) was obtained from Tocris Bioscience (Ellisville, MO) and was dissolved in DMSO (20%) and 0.9% saline (80%) and was titrated with 1.0 N HCl until the drug was dissolved at a pH of 4.0–4.5. The DMSO/saline solution with equal amounts of HCl was administered as the vehicle control. The selected dose was 1.0mg/kg based on the previous research from our laboratory. It was administered 120 min prior to testing. […]
# Behavioral sessions were conducted in operant chambers (28 × 23 × 23 cm^3; Med Associates, Fairfax, VT) with 30 min sessions 5 days/week. […] The number of lever pressing was recorded and the amount of consumed chow was calculated by weighing the remaining food, including spillage. […]
# T2 sequence (P31645 whole entry): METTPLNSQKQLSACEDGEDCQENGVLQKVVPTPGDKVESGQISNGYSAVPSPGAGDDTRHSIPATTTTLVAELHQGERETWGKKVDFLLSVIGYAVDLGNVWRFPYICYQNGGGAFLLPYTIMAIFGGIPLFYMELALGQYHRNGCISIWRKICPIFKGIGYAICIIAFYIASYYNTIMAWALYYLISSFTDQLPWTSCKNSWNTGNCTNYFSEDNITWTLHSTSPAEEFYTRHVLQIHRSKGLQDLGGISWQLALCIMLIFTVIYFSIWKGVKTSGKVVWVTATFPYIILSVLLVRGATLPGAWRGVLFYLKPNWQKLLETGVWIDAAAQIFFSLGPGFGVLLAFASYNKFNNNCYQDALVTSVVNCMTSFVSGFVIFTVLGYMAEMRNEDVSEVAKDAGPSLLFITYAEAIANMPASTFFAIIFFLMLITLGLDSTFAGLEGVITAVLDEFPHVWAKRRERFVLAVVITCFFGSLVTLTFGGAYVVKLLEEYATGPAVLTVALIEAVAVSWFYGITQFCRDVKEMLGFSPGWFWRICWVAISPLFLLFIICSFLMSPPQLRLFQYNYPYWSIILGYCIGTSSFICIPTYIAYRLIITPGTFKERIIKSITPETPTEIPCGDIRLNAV
# T1 sequence (P23975 whole entry): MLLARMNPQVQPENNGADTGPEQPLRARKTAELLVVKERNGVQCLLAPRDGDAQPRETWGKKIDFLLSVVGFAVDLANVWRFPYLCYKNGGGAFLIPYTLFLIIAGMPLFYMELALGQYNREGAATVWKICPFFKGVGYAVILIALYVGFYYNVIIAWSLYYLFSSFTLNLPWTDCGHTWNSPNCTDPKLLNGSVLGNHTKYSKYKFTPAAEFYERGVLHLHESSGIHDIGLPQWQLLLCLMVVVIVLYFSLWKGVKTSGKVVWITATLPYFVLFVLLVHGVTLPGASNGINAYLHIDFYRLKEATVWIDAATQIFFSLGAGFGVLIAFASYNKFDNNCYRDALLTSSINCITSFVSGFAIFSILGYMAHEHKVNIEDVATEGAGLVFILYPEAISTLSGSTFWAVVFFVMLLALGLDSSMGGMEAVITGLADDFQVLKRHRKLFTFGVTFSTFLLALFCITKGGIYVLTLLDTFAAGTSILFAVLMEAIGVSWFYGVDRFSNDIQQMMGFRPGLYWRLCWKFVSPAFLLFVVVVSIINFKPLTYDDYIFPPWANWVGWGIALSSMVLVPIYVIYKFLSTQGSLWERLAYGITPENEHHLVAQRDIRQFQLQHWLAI
compound,measurement,setting,value
"[O-][S@@+](Cc1cncs1)C(c1cccc(Cl)c1)c1cccc(Cl)c1 [(S)-MK-26, (S)-5-(((B(3-chlorophenyl)methyl)sulphinyl)methyl)thiazole]",binding to NET,hNET,trifling bindings
same,IC50,hSERT,> 1000 µM
same,effect on PROG lever presses,"[1]; 45.0 mg/kg i.p. alone vs vehicle, p = 0.011",statistically significant difference between the vehicle and the highest dose
same,effect on chow intake,[1]; 30.0 and 45.0 mg/kg i.p. alone vs vehicle,decreased chow intake
